A compilation of properties of binary mixtures (doi:10.1016/j.molliq.2014.09.006)

Assay: xn = mol fraction of the nth substance listed
Conditions: 101 kPa

For `CCCC[n+]1ccn(C)c1.O=[N+]([O-])[O-]` + CCO, the viscosity (283.15 K, x2 = 0) was 400 mPa·s, the viscosity (283.15 K, x2 = 0.2) was 121 mPa·s and the viscosity (283.15 K, x2 = 0.4) was 46.4 mPa·s. It also gave a viscosity (283.15 K, x2 = 0.6) of 18.9 mPa·s, a viscosity (288.15 K, x2 = 0) of 290 mPa·s and a viscosity (288.15 K, x2 = 0.2) of 93 mPa·s. The viscosity (288.15 K, x2 = 0.4) was 37.8 mPa·s, the viscosity (288.15 K, x2 = 0.6) was 15.9 mPa·s and the viscosity (293.15 K, x2 = 0) was 210 mPa·s. It also gave a viscosity (293.15 K, x2 = 0.2) of 73 mPa·s, a viscosity (293.15 K, x2 = 0.6) of 13.5 mPa·s and a viscosity (298.15 K, x2 = 0.4) of 26.1 mPa·s. The viscosity (298.15 K, x2 = 0.6) was 11.6 mPa·s, the viscosity (303.15 K, x2 = 0) was 121 mPa·s and the viscosity (303.15 K, x2 = 0.2) was 47.1 mPa·s. It also gave a viscosity (303.15 K, x2 = 0.4) of 22 mPa·s, a viscosity (308.15 K, x2 = 0) of 94 mPa·s and a viscosity (308.15 K, x2 = 0.4) of 18.8 mPa·s. It also gave a viscosity (308.15 K, x2 = 0.6) of 8.84 mPa·s, a viscosity (313.15 K, x2 = 0) of 74 mPa·s and a viscosity (313.15 K, x2 = 0.4) of 16.3 mPa·s. It also gave a viscosity (313.15 K, x2 = 0.6) of 7.81 mPa·s, a viscosity (318.15 K, x2 = 0) of 59.4 mPa·s and a viscosity (318.15 K, x2 = 0.6) of 6.95 mPa·s. The viscosity (323.15 K, x2 = 0) was 48.2 mPa·s, the viscosity (323.15 K, x2 = 0.2) was 22.8 mPa·s and the viscosity (323.15 K, x2 = 0.4) was 12.4 mPa·s. For the same compound, the viscosity (323.15 K, x2 = 0.6) was 6.23 mPa·s, the viscosity (328.15 K, x2 = 0) was 39.6 mPa·s and the viscosity (328.15 K, x2 = 0.2) was 19.6 mPa·s. It also gave a viscosity (328.15 K, x2 = 0.4) of 11 mPa·s, a viscosity (328.15 K, x2 = 0.6) of 5.62 mPa·s and a viscosity (333.15 K, x2 = 0) of 32.9 mPa·s. For the same compound, the viscosity (333.15 K, x2 = 0.2) was 16.9 mPa·s, the viscosity (333.15 K, x2 = 0.4) was 9.8 mPa·s and the viscosity (333.15 K, x2 = 0.6) was 5.1 mPa·s.
